Results: paper PMC5882164, “A novel calcimimetic agent, evocalcet (MT-4580/KHK7580), suppresses the parathyroid cell function with little effect on the gastrointestinal tract or CYP isozymes in vivo and in vitro” (PLoS ONE, 2018)
Where “and” joins values, the source holds several entries; their conditions need not be identical. Identical values can stand only once. Like-named read-outs stand apart in the source and are kept apart here.

Tests used:
[1] = Pharmacokinetics of evocalcet after oral administration to male rats; conditions: rat, in vivo; for AUC(0-inf): AUC0-∞
Protocol: The plasma concentrations of evocalcet were determined after single or repeated oral administration in both normal and 5/6 Nx rats. The pharmacokinetic (PK) parameters of the rat plasma concentrations were calculated individually using Phoenix WinNonlin 6.2, a PK analysis software program (Pharsight Corporation, Sunnyvale, CA).

serum calcium = assay: 5/6 nephrectomized rats study: serum calcium level; type: in vivo, rat; conditions: 5/6 Nx rats; for Serum Ca levels before (day 0) and 24 h after evocalcet administration, Mean / Serum Ca levels after the first administration, Mean: group mean; for Serum Ca levels before (day 0) and 24 h after evocalcet administration / Serum Ca levels after the first administration: individual rats
Protocol: Rats were 5/6 nephrectomized in two steps. Under anesthesia (pentobarbital, 50 mg/kg; intraperitoneally) and analgesia (lidocaine; topically), two-thirds of the left kidney was removed, and then the right kidney was removed after a seven-day interval. Seven days after the completion of 5/6 nephrectomy, the FR-2 diet was changed to a high-phosphate diet, containing 0.6% calcium and 0.9% phosphate (Oriental Yeast Co., Ltd., Tokyo, Japan). Approximately 2 weeks after the initiation of the high-phosphate diet, the 5/6 Nx rats were divided into five groups (n = 12/group) matched in terms of their body weight as well as their blood urea nitrogen (BUN) and serum PTH and calcium levels.
In the single-dose study, blood samples were collected from the tail vein before and at 0.5, 2, 4, 8, 24, 48, and 72 h after the oral administration of vehicle (0.5% methyl cellulose solution) or evocalcet (0.03, 0.1, 0.3, or 1 mg/kg). In the repeated-dose study, vehicle or evocalcet was orally administered to the respective groups once daily for 14 days. Blood samples were obtained from the tail vein before the first administration and after the seventh and last administrations.
The serum PTH level was measured using a Rat Intact PTH ELISA kit (Immutopics, Inc., San Clemente, CA). The serum calcium, phosphate and BUN levels were measured using an auto analyzer (Hitachi High-Technologies Corporation., Tokyo, Japan) or the following test kits: the Calcium E-test WAKO, the Phospha C-test WAKO, or the Blood Urea nitrogen B-test WAKO (Wako Pure Chemical Industries, Ltd., Osaka, Japan).

C[C@@H](N[C@H]1CCN(c2ccc(CC(=O)O)cc2)C1)c1cccc2ccccc12 [evocalcet]
bioavailability ([1]; Sprague-Dawley, Bioavailability): > 80% | AUC(0-inf) ([1]; Sprague-Dawley, po, 0.1 mg/kg): 819 ng·h/mL | Cmax ([1]; Sprague-Dawley, po, 0.1 mg/kg): 222 ng/mL | bioavailability ([1]; Sprague-Dawley, po, 0.1 mg/kg, F (bioavailability)): 81.6% | half-life ([1]; Sprague-Dawley, po, 0.1 mg/kg, t1/2): 400 min | Tmax ([1]; Sprague-Dawley, po, 0.1 mg/kg, tmax): 15 min | AUC(0-inf) ([1]; Sprague-Dawley, po, 0.3 mg/kg): 2580 ng·h/mL | Cmax ([1]; Sprague-Dawley, po, 0.3 mg/kg): 600 ng/mL | bioavailability ([1]; Sprague-Dawley, po, 0.3 mg/kg, F (bioavailability)): 85.6% | half-life ([1]; Sprague-Dawley, po, 0.3 mg/kg, t1/2): 346 min | Tmax ([1]; Sprague-Dawley, po, 0.3 mg/kg, tmax): 22.8 min | t1/2 ([1]; Sprague-Dawley, po, 1 mg/kg): 6.13 h | AUC(0-inf) ([1]; Sprague-Dawley, po, 1 mg/kg): 8440 ng·h/mL | Cmax ([1]; Sprague-Dawley, po, 1 mg/kg): 2190 ng/mL | bioavailability ([1]; Sprague-Dawley, po, 1 mg/kg, F (bioavailability)): 84.2% | Tmax ([1]; Sprague-Dawley, po, 1 mg/kg, tmax): 48.6 min | half-life ([1]; normal rats, single oral dose 1 mg/kg, mean, read-out: t1/2 (converted)): 368 min | AUC(0-inf) ([1]; po, 0.1 mg/kg): 981 ng·h/mL | Cmax ([1]; po, 0.1 mg/kg): 221 ng/mL | half-life ([1]; po, 0.1 mg/kg, t1/2): 343 min | Tmax ([1]; po, 0.1 mg/kg, tmax): 15 min | Tmax ([1]; po, 0.3 mg/kg): 30 min | AUC(0-inf) ([1]; po, 0.3 mg/kg): 2260 ng·h/mL | Cmax ([1]; po, 0.3 mg/kg): 570 ng/mL | half-life ([1]; po, 0.3 mg/kg, t1/2): 341 min | Tmax ([1]; po, 0.3 mg/kg, tmax): 15 min | Tmax ([1]; po, 1 mg/kg): 60 min | AUC(0-inf) ([1]; po, 1 mg/kg): 7890 ng·h/mL | Cmax ([1]; po, 1 mg/kg): 1810 ng/mL | half-life ([1]; po, 1 mg/kg, t1/2): 419 min | Serum Ca levels before (day 0) and 24 h after evocalcet administration, Mean (serum calcium; 0.03 mg/kg, day 0 (Before)): 7.862 | Serum Ca levels before (day 0) and 24 h after evocalcet administration (serum calcium; 0.03 mg/kg, day 0 (Before), 0.03 mg/kg): 6.475 and 7.379 and 7.410 and 6.746 and 6.842 and 8.689 and 8.077 and 8.881 and 8.577 and 8.645 and 8.453 and 8.169 | Serum Ca levels before (day 0) and 24 h after evocalcet administration, Mean (serum calcium; 0.03 mg/kg, day 7 (24 h)): 6.700 | Serum Ca levels before (day 0) and 24 h after evocalcet administration (serum calcium; 0.03 mg/kg, day 7 (24 h), 0.03 mg/kg): 4.756 and 6.463 and 7.204 and 6.649 and 7.424 and 7.568 and 6.316 and 6.947 and 6.611 and 7.154 and 6.338 and 6.972 | Serum Ca levels before (day 0) and 24 h after evocalcet administration, Mean (serum calcium; 0.03 mg/kg, day 14 (24 h)): 7.524 | Serum Ca levels before (day 0) and 24 h after evocalcet administration (serum calcium; 0.03 mg/kg, day 14 (24 h), 0.03 mg/kg): 6.629 and 7.365 and 7.620 and 6.148 and 7.312 and 8.717 and 7.991 and 8.107 and 7.192 and 7.532 and 7.865 and 7.809 | Serum Ca levels after the first administration, Mean (serum calcium; 0.03 mg/kg, time 0 h): 7.862 | Serum Ca levels after the first administration (serum calcium; 0.03 mg/kg, time 0 h): 6.475 and 7.379 and 7.410 and 6.746 and 6.842 and 8.689 | Serum Ca levels after the first administration, Mean (serum calcium; 0.03 mg/kg, time 0.5 h): 7.066 | Serum Ca levels after the first administration (serum calcium; 0.03 mg/kg, time 0.5 h): 5.843 and 6.570 and 6.547 and 6.666 and 6.639 and 7.943 | Serum Ca levels after the first administration, Mean (serum calcium; 0.03 mg/kg, time 2 h): 7.130 | Serum Ca levels after the first administration (serum calcium; 0.03 mg/kg, time 2 h): 6.221 and 6.752 and 6.943 and 6.746 and 6.851 and 7.851 | Serum Ca levels after the first administration, Mean (serum calcium; 0.03 mg/kg, time 4 h): 7.511 | Serum Ca levels after the first administration (serum calcium; 0.03 mg/kg, time 4 h): 6.129 and 7.183 and 6.895 and 7.539 and 6.860 and 8.183 | Serum Ca levels after the first administration, Mean (serum calcium; 0.03 mg/kg, time 8 h): 7.889 | Serum Ca levels after the first administration (serum calcium; 0.03 mg/kg, time 8 h): 7.265 and 7.625 and 7.368 and 8.097 and 7.474 and 8.633 | Serum Ca levels after the first administration, Mean (serum calcium; 0.03 mg/kg, time 24 h): 7.657 | Serum Ca levels after the first administration (serum calcium; 0.03 mg/kg, time 24 h): 7.337 and 7.644 and 7.429 and 7.568 and 7.040 and 8.620 | Serum Ca levels before (day 0) and 24 h after evocalcet administration, Mean (serum calcium; 0.1 mg/kg, day 0 (Before)): 7.709 | Serum Ca levels before (day 0) and 24 h after evocalcet administration (serum calcium; 0.1 mg/kg, day 0 (Before), 0.1 mg/kg): 7.331 and 8.275 and 7.642 and 7.659 and 8.173 and 8.364 and 6.513 and 7.933 and 8.070 and 7.690 and 6.674 and 8.180 | Serum Ca levels before (day 0) and 24 h after evocalcet administration, Mean (serum calcium; 0.1 mg/kg, day 7 (24 h)): 7.317 | Serum Ca levels before (day 0) and 24 h after evocalcet administration (serum calcium; 0.1 mg/kg, day 7 (24 h), 0.1 mg/kg): 7.427 and 8.099 and 7.493 and 7.242 and 7.637 and 7.025 and 6.448 and 7.138 and 7.123 and 6.680 and 7.302 and 8.184 | Serum Ca levels before (day 0) and 24 h after evocalcet administration, Mean (serum calcium; 0.1 mg/kg, day 14 (24 h)): 7.011 | Serum Ca levels before (day 0) and 24 h after evocalcet administration (serum calcium; 0.1 mg/kg, day 14 (24 h), 0.1 mg/kg): 7.048 and 7.642 and 6.969 and 7.601 and 6.617 and 6.853 and 5.928 and 7.145 and 7.117 and 6.576 and 7.375 and 7.261 | Serum Ca levels after the first administration, Mean (serum calcium; 0.1 mg/kg, time 0 h): 7.709 | Serum Ca levels after the first administration (serum calcium; 0.1 mg/kg, time 0 h): 7.331 and 8.275 and 7.642 and 7.659 and 8.173 and 8.364 and 6.513 and 7.933 and 8.070 and 7.690 and 6.674 | Serum Ca levels after the first administration, Mean (serum calcium; 0.1 mg/kg, time 0.5 h): 6.755 | Serum Ca levels after the first administration (serum calcium; 0.1 mg/kg, time 0.5 h): 6.761 and 6.580 and 6.840 and 7.344 and 6.409 and 6.926 and 6.241 and 6.919 and 6.445 and 6.968 and 6.307 | Serum Ca levels after the first administration, Mean (serum calcium; 0.1 mg/kg, time 2 h): 6.694 | Serum Ca levels after the first administration (serum calcium; 0.1 mg/kg, time 2 h): 6.582 and 6.412 and 6.604 and 7.150 and 6.977 and 6.857 and 5.795 and 6.903 and 7.147 and 6.715 and 6.267 | Serum Ca levels after the first administration, Mean (serum calcium; 0.1 mg/kg, time 4 h): 7.099 | Serum Ca levels after the first administration (serum calcium; 0.1 mg/kg, time 4 h): 7.060 and 7.085 and 7.028 and 7.482 and 7.364 and 7.406 and 5.948 and 7.326 and 7.361 and 7.050 and 6.742 | Serum Ca levels after the first administration, Mean (serum calcium; 0.1 mg/kg, time 8 h): 7.285
